This is an account of results in ChEMBL document CHEMBL1201862, “PubChem BioAssay data set” (2004).

Among the test systems are A549; CCRF-CEM; DMS-114; EKVX; HCC 2998; HCT-116; HL-60; Malme-3M; NCI-H23; NCI-H522; OVCAR-4; SF-268; SF-295; SK-MEL-28; SNB-19; UO-31.
What all share (assay): DTP human tumour cell line panel, 48 h

SMILES strings stand for the structures.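 How tested: cells in 96-well plates exposed to compound for 48 hours at five concentrations. At the GI50, growth is halved.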 Active and inactive are the calls of the source. Rule as the data show it: active = GI50 up to about 1.1 µM and inactive = higher.

For `CC(=O)OC1=C2CC3(C)OC(=O)CC(C)(C)C3=CC=C2C=C(C(C)C)C1=O` (stereo not drawn), the GI50 is 1.9 µM (inactive) in the experiment with A549; 0.316 µM (active) in the experiment on CCRF-CEM; 0.366 µM (active) in the experiment on DMS-114; 1.89 µM (inactive) with EKVX; 0.877 µM (active) in the experiment with HCC 2998; 0.41 µM (active) in the experiment on HCT-116. Further, the concentration for 50% growth inhibition (GI50) with HL-60 was 0.28 µM (active); in the experiment with Malme-3M, 0.356 µM (active); in the experiment on NCI-H23, 0.42 µM (active); in the experiment with NCI-H522, 0.189 µM (active); in the experiment with OVCAR-4, 0.299 µM (active); with SF-268 it was 1.05 µM (active). The GI50 was 1.66 µM (inactive) with SF-295, 0.456 µM (active) in the experiment with SK-MEL-28, 1.83 µM (inactive) in the experiment with SNB-19 and 1.74 µM (inactive) in the experiment on UO-31.
Consider `CC(C)(C)c1cc(CCC(=O)Nc2ccc(Cl)cc2)nc(S)n1`, for which the GI50 with A549, in the experiment with CCRF-CEM, in the experiment on DMS-114, in the experiment with EKVX, with HCC 2998 and in the experiment with HL-60 was > 100 µM (inactive) in each case. The GI50 in the experiment with Malme-3M, with NCI-H23, with NCI-H522, in the experiment with OVCAR-4, with SF-268 and in the experiment on SF-295 was > 100 µM (inactive) throughout. Further, the GI50 in the experiment with SK-MEL-28, with SNB-19 and in the experiment with UO-31 was > 100 µM (inactive) each time.
On to `CC1(C)CC(=O)C(C(=O)C(=O)NC2=C(Cl)C(=O)c3ccccc3C2=O)C(=O)C1`, for which the GI50 in the experiment with A549 was > 100 µM (inactive); in the experiment on CCRF-CEM it was 36 µM (inactive); in the experiment on DMS-114, 67.9 µM (inactive); in the experiment with EKVX, > 100 µM (inactive); in the experiment with HCC 2998 it was 45.4 µM (inactive); with HCT-116, > 100 µM (inactive). Further, the GI50 with HL-60 is 20.1 µM (inactive); in the experiment on Malme-3M, > 100 µM (inactive); in the experiment on NCI-H23 it was > 100 µM (inactive); in the experiment on NCI-H522, 24 µM (inactive); in the experiment with OVCAR-4, 63.5 µM (inactive); with SF-268, > 100 µM (inactive). In addition, the GI50 was > 100 µM (inactive) in the experiment on SF-295, > 100 µM (inactive) in the experiment on SK-MEL-28, > 100 µM (inactive) in the experiment on SNB-19 and 57.4 µM (inactive) with UO-31.
With `COC(=O)c1ccccc1NC(=O)C(=O)NNC(=O)c1ccncc1`, the GI50 in the experiment with A549, in the experiment with CCRF-CEM, with DMS-114, in the experiment on EKVX, with HCC 2998 and in the experiment on HCT-116 was > 100 µM (inactive) throughout. Further, the GI50 was > 100 µM (inactive) with HL-60; > 100 µM (inactive) in the experiment with Malme-3M; > 100 µM (inactive) with NCI-H23; > 100 µM (inactive) in the experiment on NCI-H522; > 100 µM (inactive) in the experiment on OVCAR-4; > 10 µM (inactive) in the experiment on SF-268. The GI50 with SF-295, in the experiment on SK-MEL-28, in the experiment with SNB-19 and with UO-31 was > 100 µM (inactive) in each case.
Take `[N-]=[N+]=NC1CC(n2cc(COCC(F)(F)F)c(=O)[nH]c2=O)OC1CO` (stereo not drawn): the GI50 in the experiment with A549, in the experiment on CCRF-CEM, in the experiment with DMS-114, with EKVX, in the experiment on HCC 2998 and in the experiment on HL-60 was > 100 µM (inactive) in each case. Also, the GI50 in the experiment on Malme-3M, with NCI-H23, in the experiment with NCI-H522, with OVCAR-4, with SF-268 and in the experiment on SF-295 was > 100 µM (inactive) each time. In addition, the GI50 in the experiment on SK-MEL-28, in the experiment with SNB-19 and in the experiment with UO-31 was > 100 µM (inactive) in each case.
